Measurements published in patent US6710090B2, “Inhibitory or blocking agents of molecular generating and/or inducing functions” (priority 1994, dated 2004).

Key:
[1] = tested on: pseudomonas aeruginosa; test: Histological observation of pseudomonas aeruginosa after treatment; type: cell-based; conditions: after treatment with Yoshixol
[2] = tested on: spermatozoa; test: Inhibitory effect on flagellum motility of spermatozoa; type: cell-based, japanese bull
Method: In order to investigate an effect of Yoshixol on a flagellum motility of spermatozoa, the spermatozoa (seed japanese bull ID: Sinmorihide<registration No.Zen-Wa-Kuro1114, lot No.84Y28>) which has been conserved in the liquid nitrogen was thawing at 35° C. After thawing, 1 ml of semen was transferred to Petori-schale (grainer lab. GmHB) and, flagellum motility was observed by a phase contrast microscopy (IMT-2, Olympus Co.) and was recorded by a video film via a collar video camera (CCD-IRIS, Sony Co.) so that wave cycles and speed of the flagellum were analyzed by an original software of dynamic state analyzer. […] However, though a flagellum movement was completely stopped, the rotation of the head which occurs at the centriole (near junction between head and tail) was found during a few 10 seconds. And, a speed of this rotation gradually was decelerated with progress of a time. […] Moreover, from the knowledge that these movements of cells are involved in microfilaments and microtubles which is constricted from the proteins assembly, a morphological change of this spermatozoa due to treatment with Yoshixol was investigated by transmission type (JEM1200, EXII, JEOL, Ltd.) and scanning type (JSM-6000F, JEOL, Ltd.) electron microscopy. The outside of normal flagellum with regular basic structure of 9+2 is enclosed with a cell membrane and, there was the axial filament which structure is related to a movement is observed inside. The axial filament has […] (centrum pair) that exist mainly on the center and nine double tubles that exist in a periphery (circumscription canaliculus). […] But, though morphological aspect as a whole of spermatozoa was not altered by the treatment with Yoshixol, many particles with a size of 10-30 nm on the surface were observed likely to be blowed out, when the surface structure of flagellum was investigated by a magnification. And also, ring formation likely to a doughnut in which region is contributed to the movement was not found and, adhesion of small particles were noticeable (referred FIG. 28). […]

[3] = tested on: nitric oxide (NO); test: Involvement of nitric oxide, NG-methyl-L-arginine (NMLA) as blocking agent; conditions: 4 μl of NMLA (1 mol) added; compared to Yoshixol alone
Method: Recent interest has been focused recently in effects of nitric oxide (NO) which is generated in body. Such effects are anticancer effect, bactericidal effect, inhibitory effect of antigen-antibody reaction and cardiovascular effect. […] When 4 μl of NMLA (1 mol) was added in the each test sample with and without Yoshixol, blood aggregation effect, effect of fibrin formation and bactericidal effect of Yoshixol were decreased by 10-20% comparing to effect of Yoshixol alone.

[4] = tested on: keratinocytes isolated from a human skin; test: Anti-cancer effect, cultured keratinocytes, microscopy; type: cell-based; conditions: 4 μl of Yoshixol
From the text: Adhesive factors between cells play an important role on prolifelation of malignant tumor cells and metastasis. In order to investigate the adhesive factors between cells, intracellular structure of cultured keratinocytes are utilized to observe. Thus, by using keratinocytes isolated from a human skin and cultured in this invention, structure between cells and cellular aspect of keratinocytes (5 days passed after culturing of second generation) were investigated by phase microscope (Olympus Co., IMT-2), transmission type (JEOL, Ltd. JEM 1200, EXII) and scanning type (JEOL, Ltd. JSM-6000F) electron microscopes. In the non-treated group with Yoshixol, the cultured cells proliferated monologously and in order as like as a stone wall. There were normal aspects of intracellular organella and mitosis. There were not blank spaces between cell and filling with intracellular matrix (referred FIGS. 16a, 17a). […] In addition, extracellular matrix has been also dispersed in an irregularity from cells as various sizes of particles (referred FIGS. 16b, 17b). […] And also, Yoshixol has an inhibitory effect of cell prolifelation and metastasis such as tumor cells. […]

[5] = tested on: human blood (erythrocytes); test: Preservative effect on organs and tissues, stored human blood; type: cell-based; conditions: 5 ml human blood, 4 μl of Yoshixol
Method: After sampling 5 ml of human blood from a cubital vein, the blood sample was replaced into the vacuum tube with 10 ml capacity and was mixed in a gentle. The vacuum tubes were divided by two group; one group is nontreated and another treated with 4 μl of Yoshixol. Then, changes in morphological aspects of blood, which were stored at room temperature, were observed by a transmission type and scanning electron microscopes at 30 minutes, one hour and 1 month after the sampling. […] It was existed likely as a destroyed and aggregated mass. […] Many stomatocytes (lip-like erythrocyte) and echinocyte which is appeared at a lack of pyruvate kinase were observed.

[6] = tested on: human blood serum; test: Composition of amino acids in human blood serum; type: biochemical; conditions: Yoshixol 4 μl
Method: Changes in composition of amino acids were analyzed by use of 1 ml of human blood serum, 1 ml of human fibrinogen (concentration of 160 mg/dl), 1 ml of human thrombin before and after treatment with Yoshixol (4 μl). The total amino acids in the human blood serum which was treated with Yoshixol decreased by 41%. And, ratio of each composition was altered after the treatment so that as an example the concentration of phosphoserine increased about 20 times which level was from 7.2 picomole to 164.8 picomole.

[7] = beagles, oral 10 μl per body weight
[8] = beagles, oral 10 μl per body weight, 1 week

## C=C1CC(C)(C)C=CC1=O [Yoshixol, 4,4-dimethyl-6-methylene-2-cyclohexen-1-one]
[7]
  albumin/globulin ratio: elevated 3 days after administration
  creatinine phosphokinase: fell
  enzymes such as γ-GPT, GOT, GPT: also fell
[8]
  albumin level: did not change
  changes in concentration of total bilirubin, GOT, GPT, TTT, ZTT, cholinesterase, serum iron, potassium, sodium, chloride, inorganic phosphorus and calcium: did not found
  difference in concentration of total cholesterol and triglyceride between groups: did not occur
beagles, oral 10 μl per body weight, during the administration
  level of uric acid: maintained at lower level
beagles, oral 10 μl per body weight, recovery 1 week after stop
  total proteins in blood serum: increased 3 days after administration
beagles, oral 10 μl per body weight, since 1 day after administration
  levels of nonproteins nitrogen and creatinine in the serum: 70-80 % of the control
dog, in vivo, po
  TTT and ZTT: did not show abnormal values
  changes in numbers of red blood cells, white blood cells and platelets: did not found
[1]
  histological observation of the bacilli: swelled as likely as a balloon and were ruptured
[2]; 1 μl of Yoshixol added to 1 ml semen, normal 0.3-1.5 mm per second
  velocity of spermatozoa: zero
[2]; after 1 μl of Yoshixol was added to 1 ml semen
  flagellum movement: immediately inhibited
[2]; electron microscopy after treatment with Yoshixol
  morphological aspect as a whole of spermatozoa: not altered
[3]
  decrease of blood aggregation effect, effect of fibrin formation and bactericidal effect of Yoshixol: 10-20%
[4]; 5 days after culturing of second generation
  aspects of cultured cells: showed diverse irregularity
[4]; electron microscopes
  cell membrane and intracellular organella: destroyed with varieties
[5]; room temperature
  aggregation of erythrocytes: did not show an aggregation with fibrin networks
[5]; stored at room temperature
  cell membrane and intracellular organella of erythrocytes: preserved normally over 1 month
[6]; 1 ml human blood serum
  decrease of total amino acids in human blood serum: 41%
[6]; human blood serum
  increase of concentration of phosphoserine: about 20 times
[6]; human blood serum, before 7.2 picomole
  concentration of phosphoserine after treatment: 164.8 picomole
